In patent EP0566020A1, “Benzimidazoles, pharmaceutical compositions thereof and processes for their preparation” (Dr. Karl Thomae GmbH, priority 1992, dated 1993):

target: T1, Angiotensin II-Rezeptor (Rattus norvegicus, UniProt P25095); experiment: Angiotensin II receptor binding ([125I]-angiotensin II displacement, rat lung homogenate); parameters: species or system Ratte; details: Rattenlunge homogenate, 50 pM [¹²⁵I]-Angiotensin II, 60 Min. bei 37°C; read-out: IC₅₀
T1 construct: Das Gewebe (Rattenlunge) wird in Tris-Puffer; from tissue; host or cells: rat lung homogenate (membrane pellet, 20,000 x g)
T1 sequence (P25095 1-359): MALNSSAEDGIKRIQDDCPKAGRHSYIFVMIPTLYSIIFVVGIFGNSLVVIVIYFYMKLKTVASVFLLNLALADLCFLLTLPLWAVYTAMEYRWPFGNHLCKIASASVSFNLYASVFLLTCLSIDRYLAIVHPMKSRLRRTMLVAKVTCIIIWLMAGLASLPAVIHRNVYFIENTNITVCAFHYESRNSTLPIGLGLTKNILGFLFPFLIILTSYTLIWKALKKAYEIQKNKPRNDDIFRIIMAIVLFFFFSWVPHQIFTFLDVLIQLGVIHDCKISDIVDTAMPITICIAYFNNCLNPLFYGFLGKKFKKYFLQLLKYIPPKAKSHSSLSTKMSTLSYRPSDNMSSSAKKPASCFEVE
Method: Methodenbeschreibung Angiotensin II-Rezeptorbindung
Das Gewebe (Rattenlunge) wird in Tris-Puffer (50 mMol Tris, 150 mMol NaCl, 5 mMol EDTA, pH 7.40) homogenisiert und zweimal je 20 Min. bei 20.000 x g zentrifugiert. Das endgültige Pellet wird in Inkubations-Puffer (50 mMol Tris, 5 mMol MgCl₂, 0,2 % BSA, pH 7,40) 1:75, bezogen auf das Feuchtgewicht des Gewebes, resuspendiert. Je 0,1 ml Homogenat wird für 60 Min. bei 37°C mit 50 pM [¹²⁵I]-Angiotensin II (NEN, Dreieich, FRG) und steigenden Konzentrationen der Testsubstanz in einem Gesamtvolumen von 0,25 ml inkubiert. Die Inkubation wird durch rasche Filtration durch Glasfiber-Filtermatten beendet. Die Filter werden je 4 ml eiskaltem Puffer (25 mMol Tris, 2.5 mMol MgCl₂, 0,1 % BSA, pH 7,40) gewaschen. Die gebundene Radioaktivität wird in einem Gamma-Counter ermittelt. Aus der Dosis-Wirkungskurve wird der entsprechende IC₅₀-Wert ermittelt.

Row | Structure (SMILES) | IC50 [nM]
1 | CCCc1nc2c(C)cc(C3=NC(C)(C)CO3)cc2n1Cc1ccc(-c2ccccc2C(=O)O)cc1 [Substanz H, 4'-[[2-n-Propyl-4-methyl-6-(4,4-dimethyl-oxazolin-2-yl)-1H-benzimidazol-1-yl]-methyl]-biphenyl-2-carbonsäure-di-trifluoracetat] | 37
2 | CCCc1nc2c(C)cc(-c3nc(-c4ccccc4)c(C)n3C)cc2n1Cc1ccc(-c2ccccc2C(=O)O)cc1 [Substanz I, 4'-[[2-n-Propyl-4-methyl-6-(1,5-dimethyl-4-phenyl-imidazol-2-yl)-1H-benzimidazol-1-yl]-methyl]-biphenyl-2-carbonsäure-hydrat] | 3.2
3 | CCc1nc2c(C)cc(-c3nc4c(n3CC)CCCC4)cc2n1Cc1ccc(-c2ccccc2-c2nnn[nH]2)cc1 [Substanz G, 4'-[[2-Ethyl-4-methyl-6-(1-ethyl-5,6,7,8-tetrahydro-benzimidazol-2-yl)-1H-benzimidazol-1-yl]-methyl]-2-(1H-tetrazol-5-yl)-biphenyl-hydrat] | 1.6
4 | CCc1nc2c(C)cc(-c3nc4c(n3-c3ccccc3)CCCC4)cc2n1Cc1ccc(-c2ccccc2C(=O)O)cc1 [Substanz E, 4'-[[2-Ethyl-4-methyl-6-(1-phenyl-5,6,7,8-tetrahydrobenzimidazol-2-yl)-1H-benzimidazol-1-yl]-methyl]-biphenyl-2-carbonsäure-hydrat] | 46
5 | CCCc1nc2c(C)cc(-c3nc4c(n3C)CCCC4)cc2n1Cc1ccc(-c2ccccc2-c2nnn[nH]2)cc1 [Substanz C, 4'-[[2-n-Propyl-4-methyl-6-(1-methyl-5,6,7,8-tetrahydrobenzimidazol-2-yl)-1H-benzimidazol-1-yl]-methyl]-2-(1H-tetrazol-5-yl)biphenyl] | 2.6
6 | CCCc1nc2c(C)cc(-c3nc(C(C)C)c(C)n3C)cc2n1Cc1ccc(-c2ccccc2C(=O)O)cc1 [Substanz K, 4'-[[2-n-Propyl-4-methyl-6-(4-isopropyl-1,5-dimethyl-imidazol-2-yl)-1H-benzimidazol-1-yl]-methyl]-biphenyl-2-carbonsäure x 1,25 Wasser] | 19.5

Now from value to compound:

Row | IC50 [nM] | Structure (SMILES)
7 | 6 | CCCc1nc2c(C)cc(-c3nc4c(n3Cc3ccccc3)CCCC4)cc2n1Cc1ccc(-c2ccccc2C(=O)O)cc1 [Substanz D, 4'-[[2-n-Propyl-4-methyl-6-(1-benzyl-5,6,7,8-tetrahydrobenzimidazol-2-yl)-1H-benzimidazol-1-yl]-methyl]-biphenyl-2-carbonsäure]
8 | 38 | CCCc1nc2c(C)cc(-c3nc4c(n3CC(=O)O)CCCC4)cc2n1Cc1ccc(-c2ccccc2C(=O)O)cc1 [Substanz F, 4'-[[2-n-Propyl-4-methyl-6-(1-carboxymethyl-5,6,7,8-tetrahydrobenzimidazol-2-yl)-1H-benzimidazol-1-yl]-methyl]-biphenyl-2-carbonsäure-semihydrat]
9 | 12 | CCCc1nc2c(C)cc(-c3nc4c([nH]3)CCCC4)cc2n1Cc1ccc(-c2ccccc2C(=O)O)cc1 [Substanz A, 4'-[[2-n-Propyl-4-methyl-6-(5,6,7,8-tetrahydrobenzimidazol-2-yl)-1H-benzimidazol-1-yl]-methyl]-biphenyl-2-carbonsäure]
10 | 3.8 | CCCc1nc2c(C)cc(-c3nc4c(n3C)CCCC4)cc2n1Cc1ccc(-c2ccccc2C(=O)O)cc1 [Substanz B, 4'-[[2-n-Propyl-4-methyl-6-(1-methyl-5,6,7,8-tetrahydrobenzimidazol-2-yl)-1H-benzimidazol-1-yl]-methyl]-biphenyl-2-carbonsäure]
